Test results from publication PMC3229595, “Discovery of Novel MDR-Mycobacterium tuberculosis Inhibitor by New FRIGATE Computational Screen” (PLoS ONE, 2011).
Values after ≈ are worked out from the molar mass of the structure shown.

Experiments:
[1] = molecular target: T1, antigen 85C (Ag85C) (Mycobacterium tuberculosis, UniProt P9WQN9); assay: […]-HSQC NMR titration (chemical shift perturbation); assay type: binding
T1 construct: gene fbpC

[2] = system: T2, Mycobacterium smegmatis Msmeg; assay: microbe, parasite or virus in culture; parameters: species or system Mycobacterium smegmatis DSM 43465; broth microdilution MIC in CAMHB, MTT staining, visual read-out; conditions: Mycolicibacterium smegmatis; read-out: Msmeg growth inhibition [MIC ug/mL]
T2 construct: DSM 43465
Experimental: The BEI parameter is conceptually very similar to previously published ligand efficiency (LE) parameters that normalize logarithmic affinity by non-hydrogen atom count rather than molecular weight ^5-7. Experimental Section Antibacterial in vitro assay for M. smegmatis. For MIC assays according to the Clinical and Laboratory Standards Institute M. smegmatis (strain DSM 43465) cells were grown in CAMHB medium at 35°C to an OD625nm higher than 0.09 followed by a dilution in medium to reach OD625nm of […] (“0.5 McFarland Standard”). These cell suspensions were brought to approximately 1 * 10^6 CFU/ml which corresponds to a 1:200 dilution. Resulting cell inoculi were diluted 1:1 with medium containing increasing concentrations of test compound as indicated in 96 well plates in duplicates (cell titer and purity of inoculum was checked in parallel by plating out on CAMHB-agar). After 24 – 48 h incubation MTT-solution (5 mg/ml thiaolyl blue tetrazoliumbromide) were added to stain wells with living cells and plates were photographed ^8. Wells with the lowest concentration of compound that were free of the dark brown color of bacteria were considered MICs. Ampicillin was used as a positive control antibiotic. Learning from the rich literature of potent in vitro enzyme inhibitors that were discarded due to the lack of antibacterial activity, we assayed the 31 selected FRIGATE hits for antibacterial activity prior to in vitro follow-up work. We utilized the less pathogenic and faster growing Mtb model organism Msmeg for primary growth inhibition testing.

T1 sequence (P9WQN9 46-340): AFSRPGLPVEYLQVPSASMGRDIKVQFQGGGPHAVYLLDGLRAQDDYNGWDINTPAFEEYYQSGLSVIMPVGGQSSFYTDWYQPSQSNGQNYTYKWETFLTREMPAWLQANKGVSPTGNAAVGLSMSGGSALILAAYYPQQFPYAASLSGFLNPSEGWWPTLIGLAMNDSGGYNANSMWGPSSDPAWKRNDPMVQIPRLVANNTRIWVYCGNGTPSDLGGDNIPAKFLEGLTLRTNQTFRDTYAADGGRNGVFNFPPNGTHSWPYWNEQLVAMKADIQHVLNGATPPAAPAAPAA

Row | Structure (SMILES) | Kd [1] [µM] | MIC [2] [µg/mL]
1 | Cc1cccn2c(=O)c3cc(C(=O)NCCCn4ccnc4)n(Cc4ccccc4)c3nc12 [compound 1, N-[3-(1H-imidazol-1-yl)propyl]-1-benzyl-9-methyl-4-oxo-1,4-dihydropyrido[1,2-a]pyrrolo[2,3-d]pyrimidine-2-carboxamide] | 177 | < 50
2 | CC1=C(C#N)c2nc(N)c(C#N)cc2C1=Cc1ccc(-c2ccccc2C(=O)O)o1 [compound 2, 2] | – | > 200
3 | OC(CNC1CCc2ccccc21)COc1ccc(-c2csnn2)cc1 (stereo not shown) [compound 3, 3] | – | 100 (≈ 272 µM)
